For one test, the target named is EGFR del19/T790M/C797S (Homo sapiens, UniProt P00533, C797S/DEL746-750/T790M). As to the kind of experiment: Biochemical EGFR kinase assay (Lance Ultra TR-FRET), del19/T790M/C797S. The essentials:
(§1)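 Enzyme reactions lasted 1 hour at room temperature with test compounds between 0.003 and 10 μM, followed by 10 mM EDTA quench.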
(TR-FRET usually uses a lanthanide donor and a delayed reading to cut background.)

The target of a further test is EGFR L858R/T790M/C797S (Homo sapiens, UniProt P00533, C797S/L858R/T790M). As to the kind of experiment: Biochemical EGFR kinase assay (Lance Ultra TR-FRET), L858R/T790M/C797S. The essentials:
as §1

The target in another test is EGFR del19/C797S (Homo sapiens, UniProt P00533, C797S/DEL746-750). As to the kind of experiment: Biochemical EGFR kinase assay (Lance Ultra TR-FRET), del19/C797S. The essentials: as §1
A further test has as its target EGFR L858R/C797S (Homo sapiens, UniProt P00533, C797S/L858R). As to the kind of experiment: Biochemical EGFR kinase assay (Lance Ultra TR-FRET), L858R/C797S. The essentials:
as §1

For a further test, the target named is EGFR wildtype (WT) (Homo sapiens, UniProt P00533). As to the kind of experiment: Biochemical EGFR kinase assay (Lance Ultra TR-FRET), wildtype. The essentials: as §1
The mark [1] stands for this setting: IC50 del19/T790M/C797S (nM) 100 μM ATP, 100 μM ATP.
Setting [2] is: Km ATP, read-out: IC50 del19/T790M/C797S (nM) Km ATP.
Setting [3] is: IC50 L858R/T790M/C797S (nM) 100 μM ATP, 100 μM ATP.
[4] abbreviates: Km ATP, read-out: IC50 L858R/T790M/C797S (nM) Km ATP.
Setting [5] is: IC50 del19/C797S (nM) 100 μM ATP, 100 μM ATP.
The mark [6] stands for this setting: Km ATP, read-out: IC50 del19/C797S (nM) Km ATP.
Where [7] appears, read: IC50 L858R/C797S (nM) 100 μM ATP, 100 μM ATP.
[8] abbreviates: Km ATP, read-out: IC50 L858R/C797S (nM) Km ATP.
Setting [9] is: IC50 WT (nM) 100 μM ATP, 100 μM ATP.
[10] abbreviates: Km ATP, read-out: IC50 WT (nM) Km ATP.

The structures appear in SMILES notation. Read-outs that look alike come from different tables or passages of the source.

Sequence of EGFR del19/C797S (P00533 with tags, fused parts or gaps DEL746-750/C797S): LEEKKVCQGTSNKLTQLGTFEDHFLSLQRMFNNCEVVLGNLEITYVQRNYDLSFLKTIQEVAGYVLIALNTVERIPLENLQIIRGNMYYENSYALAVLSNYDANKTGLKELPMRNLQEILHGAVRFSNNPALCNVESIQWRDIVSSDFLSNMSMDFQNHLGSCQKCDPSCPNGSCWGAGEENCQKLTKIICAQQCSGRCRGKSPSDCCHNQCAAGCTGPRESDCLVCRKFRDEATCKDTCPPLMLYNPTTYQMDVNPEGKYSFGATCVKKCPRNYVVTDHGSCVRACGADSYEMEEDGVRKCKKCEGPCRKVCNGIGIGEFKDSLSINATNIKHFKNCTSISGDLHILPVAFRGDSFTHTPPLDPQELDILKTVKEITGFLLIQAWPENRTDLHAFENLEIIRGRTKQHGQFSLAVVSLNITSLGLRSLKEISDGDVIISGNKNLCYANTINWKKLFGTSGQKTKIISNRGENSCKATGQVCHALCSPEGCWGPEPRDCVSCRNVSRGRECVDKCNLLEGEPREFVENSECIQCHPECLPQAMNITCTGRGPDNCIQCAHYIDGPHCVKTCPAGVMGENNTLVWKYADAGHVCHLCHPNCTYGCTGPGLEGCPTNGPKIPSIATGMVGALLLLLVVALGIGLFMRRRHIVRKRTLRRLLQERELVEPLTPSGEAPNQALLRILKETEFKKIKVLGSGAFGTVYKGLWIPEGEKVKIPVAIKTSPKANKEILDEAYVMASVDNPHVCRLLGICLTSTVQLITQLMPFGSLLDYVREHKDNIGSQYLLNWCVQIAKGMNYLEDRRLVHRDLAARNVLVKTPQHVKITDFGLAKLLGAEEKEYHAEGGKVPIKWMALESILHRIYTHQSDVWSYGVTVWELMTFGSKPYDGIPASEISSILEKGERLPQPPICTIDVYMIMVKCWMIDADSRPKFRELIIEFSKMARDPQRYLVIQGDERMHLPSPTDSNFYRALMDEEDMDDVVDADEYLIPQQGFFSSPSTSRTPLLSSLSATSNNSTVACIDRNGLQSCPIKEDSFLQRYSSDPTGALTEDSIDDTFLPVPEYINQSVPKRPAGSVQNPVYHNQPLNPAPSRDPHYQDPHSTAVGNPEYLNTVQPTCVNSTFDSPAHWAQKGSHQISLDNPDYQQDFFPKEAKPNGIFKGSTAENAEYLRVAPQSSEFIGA
Sequence of EGFR wildtype (WT) (P00533 25-1210): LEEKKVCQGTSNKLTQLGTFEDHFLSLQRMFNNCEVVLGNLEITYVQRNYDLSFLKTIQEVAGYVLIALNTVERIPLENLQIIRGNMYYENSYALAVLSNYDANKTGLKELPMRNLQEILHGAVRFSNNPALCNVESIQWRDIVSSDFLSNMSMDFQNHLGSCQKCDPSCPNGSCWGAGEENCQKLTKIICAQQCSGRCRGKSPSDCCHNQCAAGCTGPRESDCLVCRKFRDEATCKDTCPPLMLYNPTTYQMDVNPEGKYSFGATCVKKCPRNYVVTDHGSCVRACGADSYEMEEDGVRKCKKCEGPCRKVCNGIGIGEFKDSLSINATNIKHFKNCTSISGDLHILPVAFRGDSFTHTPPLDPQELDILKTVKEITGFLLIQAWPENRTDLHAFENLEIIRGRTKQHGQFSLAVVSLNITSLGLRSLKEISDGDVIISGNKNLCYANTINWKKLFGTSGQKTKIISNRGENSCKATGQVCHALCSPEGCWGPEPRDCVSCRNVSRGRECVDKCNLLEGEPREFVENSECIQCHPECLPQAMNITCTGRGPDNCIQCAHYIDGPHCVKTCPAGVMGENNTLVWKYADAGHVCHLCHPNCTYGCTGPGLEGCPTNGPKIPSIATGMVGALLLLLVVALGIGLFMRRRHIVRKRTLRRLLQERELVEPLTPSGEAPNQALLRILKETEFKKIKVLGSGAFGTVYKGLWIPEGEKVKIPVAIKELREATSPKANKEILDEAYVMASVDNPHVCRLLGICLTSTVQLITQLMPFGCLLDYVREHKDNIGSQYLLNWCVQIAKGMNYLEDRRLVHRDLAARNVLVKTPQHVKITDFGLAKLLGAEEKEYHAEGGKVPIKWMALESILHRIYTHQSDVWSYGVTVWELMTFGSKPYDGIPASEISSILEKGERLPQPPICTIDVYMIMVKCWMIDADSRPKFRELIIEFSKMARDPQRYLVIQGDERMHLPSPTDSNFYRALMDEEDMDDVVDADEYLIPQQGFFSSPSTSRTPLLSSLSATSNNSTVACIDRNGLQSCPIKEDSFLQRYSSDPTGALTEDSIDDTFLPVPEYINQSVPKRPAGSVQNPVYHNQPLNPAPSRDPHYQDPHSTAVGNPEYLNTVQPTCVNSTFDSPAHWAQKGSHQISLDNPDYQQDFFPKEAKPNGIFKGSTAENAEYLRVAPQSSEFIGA
Sequence of EGFR L858R/C797S (P00533 25-1210 C797S/L858R): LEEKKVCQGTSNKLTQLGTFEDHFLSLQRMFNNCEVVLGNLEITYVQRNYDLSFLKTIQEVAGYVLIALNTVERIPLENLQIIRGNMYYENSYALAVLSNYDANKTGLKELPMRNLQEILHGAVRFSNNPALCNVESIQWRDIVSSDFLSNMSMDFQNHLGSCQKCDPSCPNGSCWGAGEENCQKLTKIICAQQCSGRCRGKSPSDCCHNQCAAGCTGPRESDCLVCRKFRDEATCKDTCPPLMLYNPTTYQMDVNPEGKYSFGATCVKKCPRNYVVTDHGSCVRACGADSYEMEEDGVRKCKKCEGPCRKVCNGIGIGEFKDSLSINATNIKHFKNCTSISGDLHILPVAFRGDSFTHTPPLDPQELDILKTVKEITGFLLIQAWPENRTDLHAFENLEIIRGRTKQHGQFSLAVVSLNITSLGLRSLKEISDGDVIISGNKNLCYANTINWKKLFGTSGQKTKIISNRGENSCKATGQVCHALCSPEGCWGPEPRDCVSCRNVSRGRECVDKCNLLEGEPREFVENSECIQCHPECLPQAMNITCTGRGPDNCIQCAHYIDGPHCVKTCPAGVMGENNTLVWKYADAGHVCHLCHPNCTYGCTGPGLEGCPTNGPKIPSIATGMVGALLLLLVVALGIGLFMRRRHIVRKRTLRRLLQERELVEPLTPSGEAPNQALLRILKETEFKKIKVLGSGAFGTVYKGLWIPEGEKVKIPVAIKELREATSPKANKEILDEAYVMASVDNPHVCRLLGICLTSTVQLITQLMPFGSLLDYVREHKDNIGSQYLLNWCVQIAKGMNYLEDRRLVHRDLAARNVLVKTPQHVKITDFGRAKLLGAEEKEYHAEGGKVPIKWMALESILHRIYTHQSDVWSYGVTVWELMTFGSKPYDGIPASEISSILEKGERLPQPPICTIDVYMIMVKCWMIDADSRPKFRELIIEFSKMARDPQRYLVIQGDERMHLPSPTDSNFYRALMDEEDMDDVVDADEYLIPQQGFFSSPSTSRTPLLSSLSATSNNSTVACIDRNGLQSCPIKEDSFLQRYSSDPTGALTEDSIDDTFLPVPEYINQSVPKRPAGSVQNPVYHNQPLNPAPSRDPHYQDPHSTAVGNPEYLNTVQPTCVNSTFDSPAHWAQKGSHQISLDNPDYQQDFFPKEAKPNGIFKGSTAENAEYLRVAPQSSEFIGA
Sequence of EGFR del19/T790M/C797S (P00533 with tags, fused parts or gaps DEL746-750/T790M/C797S): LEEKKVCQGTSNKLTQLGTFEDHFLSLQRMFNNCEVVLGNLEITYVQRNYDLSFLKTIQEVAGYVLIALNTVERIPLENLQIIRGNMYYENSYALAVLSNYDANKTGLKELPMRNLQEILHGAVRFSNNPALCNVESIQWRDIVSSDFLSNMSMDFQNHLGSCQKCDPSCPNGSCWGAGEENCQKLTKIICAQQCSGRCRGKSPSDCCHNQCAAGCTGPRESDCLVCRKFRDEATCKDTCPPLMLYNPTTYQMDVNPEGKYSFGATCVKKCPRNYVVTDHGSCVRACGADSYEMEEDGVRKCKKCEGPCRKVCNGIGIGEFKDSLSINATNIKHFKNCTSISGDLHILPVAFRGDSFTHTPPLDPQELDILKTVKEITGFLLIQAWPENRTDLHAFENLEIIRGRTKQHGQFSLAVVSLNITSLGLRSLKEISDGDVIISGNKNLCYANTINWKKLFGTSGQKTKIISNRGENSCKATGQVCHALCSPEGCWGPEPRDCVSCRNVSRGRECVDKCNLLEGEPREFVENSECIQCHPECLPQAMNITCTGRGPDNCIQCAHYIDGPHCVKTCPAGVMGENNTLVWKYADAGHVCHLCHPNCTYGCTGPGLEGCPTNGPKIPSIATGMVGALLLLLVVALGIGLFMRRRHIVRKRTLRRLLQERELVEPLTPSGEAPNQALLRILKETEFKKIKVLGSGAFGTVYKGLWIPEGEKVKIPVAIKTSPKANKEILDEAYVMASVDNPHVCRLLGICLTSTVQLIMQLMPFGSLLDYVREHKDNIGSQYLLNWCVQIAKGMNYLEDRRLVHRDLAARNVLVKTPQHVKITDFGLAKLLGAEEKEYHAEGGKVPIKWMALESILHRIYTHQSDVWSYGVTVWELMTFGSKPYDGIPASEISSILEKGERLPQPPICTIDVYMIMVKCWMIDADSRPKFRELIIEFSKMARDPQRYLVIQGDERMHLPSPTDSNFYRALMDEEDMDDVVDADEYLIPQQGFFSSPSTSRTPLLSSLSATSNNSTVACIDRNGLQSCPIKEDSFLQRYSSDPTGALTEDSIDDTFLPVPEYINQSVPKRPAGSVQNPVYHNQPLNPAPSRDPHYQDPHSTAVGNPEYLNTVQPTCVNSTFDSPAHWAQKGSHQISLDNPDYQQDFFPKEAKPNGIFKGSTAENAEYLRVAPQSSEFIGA

As to `O=C(c1cnc(Nc2ccnc(-c3cnn(S(=O)(=O)C4CC4)c3)n2)cc1N[C@H]1CC[C@](O)(CO)CC1)C1CC1` [Example 86, Cyclopropyl(6-((2-(1-(cyclopropylsulfonyl)-1H-pyrazol-4-yl)pyrimidin-4-yl)amino)-4-(((1s,4s)-4-hydroxy-(4-hydroxymethyl)cyclohexyl)amino)pyridin-3-yl)methanone], the IC50 on EGFR del19/T790M/C797S (setting [1]) was found to be 0.2 nM; at EGFR del19/T790M/C797S (setting [2]) it was 0.2 nM; against EGFR L858R/T790M/C797S (setting [3]), 0.3 nM; on EGFR L858R/T790M/C797S (setting [4]), 0.1 nM; against EGFR del19/C797S (setting [5]), 2.9 nM; at EGFR del19/C797S (setting [6]), 1.9 nM. Further, the IC50 is 52.9 nM at EGFR L858R/C797S (setting [7]), 4.3 nM at EGFR L858R/C797S (setting [8]), > 10000 nM against EGFR wildtype (WT) (setting [9]) and 47.6 nM at EGFR wildtype (WT) (setting [10]).
With `O=C(c1cnc(Nc2ccnc(-c3cnn(S(=O)(=O)C4CC4)c3)n2)cc1NC1CCC(F)(CO)CC1)C1CC1` (centres unmarked) [Example 87, Cyclopropyl(6-((2-(1-(cyclopropylsulfonyl)-1H-pyrazol-4-yl)pyrimidin-4-yl)amino)-4-((4-fluoro-4-(hydroxymethyl)cyclohexyl)amino)pyridin-3-yl)methanone], the IC50 was 2.2 nM against EGFR del19/T790M/C797S (setting [1]); 4.3 nM against EGFR L858R/T790M/C797S (setting [3]); 25.3 nM at EGFR del19/C797S (setting [5]); 442 nM against EGFR L858R/C797S (setting [7]); > 10000 nM against EGFR wildtype (WT) (setting [9]).
For the compound `CN[C@H]1CC[C@H](CNc2cc(Nc3ccnc(-c4cnn(S(=O)(=O)C5CC5)c4)n3)ncc2C(=O)C2CC2)CC1` [Example 88, Cyclopropyl(6-((2-(1-(cyclopropylsulfonyl)-1H-pyrazol-4-yl)pyrimidin-4-yl)amino)-4-((((1r,4r)-4-(methylamino)cyclohexyl)methyl)amino)pyridin-3-yl)methanone], the IC50 against EGFR del19/T790M/C797S (setting [1]) came out at 0.1 nM; at EGFR del19/T790M/C797S (setting [2]) it was 0.1 nM; against EGFR L858R/T790M/C797S (setting [3]), 0.2 nM; at EGFR L858R/T790M/C797S (setting [4]), 0.1 nM; against EGFR del19/C797S (setting [5]) it was 2.6 nM; on EGFR del19/C797S (setting [6]), 1.6 nM. Also, the IC50 amounted to 30.7 nM against EGFR L858R/C797S (setting [7]), 2.6 nM at EGFR L858R/C797S (setting [8]), 3160 nM against EGFR wildtype (WT) (setting [9]) and 24.6 nM on EGFR wildtype (WT) (setting [10]).
Take `CNC[C@H]1CC[C@H](CNc2cc(Nc3ccnc(-c4cnn(S(=O)(=O)C5CC5)c4)n3)ncc2C(=O)C2CC2)CC1` [Example 89, Cyclopropyl(6-((2-(1-(cyclopropylsulfonyl)-1H-pyrazol-4-yl)pyrimidin-4-yl)amino)-4-((((1r,4r)-4-((methylamino)methyl)cyclohexyl)methyl)amino)pyridin-3-yl)methanone]: the IC50 against EGFR del19/T790M/C797S (setting [1]) is 0.2 nM; on EGFR del19/T790M/C797S (setting [2]), 0.2 nM; against EGFR L858R/T790M/C797S (setting [3]) it was 0.1 nM; at EGFR L858R/T790M/C797S (setting [4]), 0.1 nM; on EGFR del19/C797S (setting [5]), 0.8 nM; on EGFR del19/C797S (setting [6]) it was 0.5 nM. In addition, the IC50 came to 7.9 nM on EGFR L858R/C797S (setting [7]), 0.7 nM on EGFR L858R/C797S (setting [8]), 532 nM at EGFR wildtype (WT) (setting [9]) and 4.9 nM on EGFR wildtype (WT) (setting [10]).
